Legend:
[1] = target: T1, TTD–PHD (UHRF1_126–366) (Homo sapiens, UniProt Q96T88); test: SES ensemble fitting of SAXS data of TTD–PHD with BPC
T1 construct: His tag (TEV-cleavable) (N); made in house
T1 sequence (Q96T88 126-366): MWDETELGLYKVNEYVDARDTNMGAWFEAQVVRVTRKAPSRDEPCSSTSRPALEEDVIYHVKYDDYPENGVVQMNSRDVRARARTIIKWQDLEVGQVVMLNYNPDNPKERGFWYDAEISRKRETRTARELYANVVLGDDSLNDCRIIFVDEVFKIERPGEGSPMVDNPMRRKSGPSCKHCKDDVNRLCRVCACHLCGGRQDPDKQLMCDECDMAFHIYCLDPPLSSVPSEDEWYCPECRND
Source text: The Rg-based Kratky plot is shifted to higher coordinate values with respect to its position for apo TTD–PHD (supplemental Fig. S4). […] We performed SES fitting of SAXS data collected for TTD–PHD in the presence of BPC using MDPIN/OUT. The optimal ensemble, OEBPC(SAXS), fits the data reasonably well in the q range of 0 < q < 0.2. The Rg distribution is bimodal with the major peak at ∼25 Å and a minor peak at ∼34 Å (Fig. 4D). […] These less-compact, “linker-out” conformers should be unable to bind to H3K9me3 peptides in a cooperative manner (as in PDB code 3ASK ([10], [23])) and, in addition, be unable to bind via the isolated TTD because groove-H3K9me3 contacts found to be essential for this binding mode, as reported by Nady et al. ([9]), are blocked.
We used an ensemble approach for the structural characterization of the TTD–PHD in solution by utilizing the SES protocol ([18]). The strategy on which the SES method is based consists of two main steps: 1) generate the initial ensemble of conformations to approximate the conformational space available for a system in solution and 2) find the optimal population weight for each member of the initial ensemble that minimizes the discrepancy between the ensemble-predicted and the observed experimental data. The goodness of the ensemble fit is measured as χ^2. […] The ARMOR output was analyzed to select the optimal ensemble size using the l-curve ([18]), and the vector of the optimal weights, w, was calculated by averaging over top near optimal solutions with similar value of χ^2. […]

[2] = target: T2, TTD (UHRF1_121–286) (Homo sapiens, UniProt Q96T88); test: DSF thermal shift of TTD; format: binding; details: 0.1 mg/ml TTD, absence and presence of 3 mM BPC, 0.1 M HEPES pH 7.5, 0.15 M NaCl, 5× Sypro Orange, 4 °C/min
T2 construct: UHRF1_121–286 corresponding to the TTD; made in house
T2 sequence (Q96T88 121-286): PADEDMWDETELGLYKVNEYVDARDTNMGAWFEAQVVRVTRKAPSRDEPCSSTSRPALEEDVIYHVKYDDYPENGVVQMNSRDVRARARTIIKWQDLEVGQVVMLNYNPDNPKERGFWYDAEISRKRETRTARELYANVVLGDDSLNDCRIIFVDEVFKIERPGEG
Description: DSF measurements were performed with a Light Cycler 480 II instrument from Roche Applied Science. TTD (UHRF1_121–286) was buffered at 0.1 mg/ml in 0.1 M HEPES (pH 7.5), 0.15 M NaCl, and 5× Sypro Orange. Sypro Orange was purchased from Invitrogen as a 5,000× stock solution, and it was diluted 1:1,000 to yield a 5× working concentration. Experiments were run in the absence and presence of 3 mM BPC. DSF was carried out by increasing the temperature from 20 to 95 °C at a heating rate of 4 °C/min, and data points were collected at 1 °C intervals. The temperature scan curves were fitted to a Boltzmann sigmoid function, and the Tm values were obtained from the midpoint of the transition as described previously ([47]).
Figure S5 (related to Fig. 4)
Binding of BPC in the groove of TTD. […]
labeled (at the N-terminus) H3K9me3(1-25) peptide, (B) ITC, and (C) DSF. (D) KD estimates of BPC bind-ing based on I211 and Y239 amide peak movement (where Δ(ppm) = ((ΔδHN)2 + (ΔδN/6.5)2 )1⁄2) in (1H-15N) HSQC spectra when the TTD is titrated with BPC. […]
as a function of TTD sequence resulting from BPC (blue) or PBR peptide (red) binding. (F) HSQC overlays […]
ment:protein), and PBR peptide ratios (bottom spectrum - from 1:1 to 5:1 peptide:protein). The protein con-centration was ~250 µM for all NMR experiments, and the DMSO concentration was 5% for NMR titrations […]

[3] = SES fitting using MDPIN/OUT, TTD–PHD with BPC

contribution of linker-bound structures to OEBPC(SAXS) ([1]; 6,000 starting structures with linker bound to groove): zero contribution
Rg distribution of OEBPC(SAXS), major peak [1, 3]: ~25 Å
Rg distribution of OEBPC(SAXS), minor peak [1, 3]: ~34 Å
ΔTm (thermal shift) [2]: 2.9 °C
SMILES: N=C(N)N1CCC(Cc2ccccc2)CC1 [BPC, 4-benzylpiperidine-1-carboximidamide]

From article PMC5743070 (The Journal of Biological Chemistry, 2017)
